# Molecular target: T1, hFXR (Homo sapiens, UniProt Q96RI1)
# T1 construct: expressed in transfected cells; host or cells: CV-1 cells
# T1 sequence (Q96RI1 1-486): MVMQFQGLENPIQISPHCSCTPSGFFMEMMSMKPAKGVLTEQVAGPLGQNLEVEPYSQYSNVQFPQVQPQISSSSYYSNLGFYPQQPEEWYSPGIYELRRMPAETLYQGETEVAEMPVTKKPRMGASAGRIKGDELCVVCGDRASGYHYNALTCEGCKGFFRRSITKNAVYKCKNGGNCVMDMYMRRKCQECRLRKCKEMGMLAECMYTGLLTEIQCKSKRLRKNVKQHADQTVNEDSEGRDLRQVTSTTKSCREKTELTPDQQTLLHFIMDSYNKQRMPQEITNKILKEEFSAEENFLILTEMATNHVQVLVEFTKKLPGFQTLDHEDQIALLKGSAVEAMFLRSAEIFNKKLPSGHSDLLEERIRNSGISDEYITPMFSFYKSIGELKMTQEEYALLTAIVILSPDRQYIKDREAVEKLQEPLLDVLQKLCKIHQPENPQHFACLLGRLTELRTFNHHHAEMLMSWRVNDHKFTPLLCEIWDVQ
# T1 sequence (P19793 1-462 partner): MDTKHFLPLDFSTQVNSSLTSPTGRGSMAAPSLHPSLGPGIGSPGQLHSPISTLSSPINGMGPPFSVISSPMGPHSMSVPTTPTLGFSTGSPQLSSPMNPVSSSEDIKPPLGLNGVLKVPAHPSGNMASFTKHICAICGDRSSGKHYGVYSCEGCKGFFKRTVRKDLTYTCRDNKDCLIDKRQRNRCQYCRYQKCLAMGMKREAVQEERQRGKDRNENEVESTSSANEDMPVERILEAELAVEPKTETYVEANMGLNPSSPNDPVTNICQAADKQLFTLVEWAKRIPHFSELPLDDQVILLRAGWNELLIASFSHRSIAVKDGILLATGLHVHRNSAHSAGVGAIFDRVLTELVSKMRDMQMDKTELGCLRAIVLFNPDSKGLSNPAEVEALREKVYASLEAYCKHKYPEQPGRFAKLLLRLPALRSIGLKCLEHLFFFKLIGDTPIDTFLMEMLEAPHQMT
# Assay: In Vitro FXR Assay (TK): TK-ECRE-luc reporter in transfected CV-1 cells
# Type: cell-based
# Conditions: CV-1 cells transfected with hFXR, hRXR, pCMX-YFP, 18 hrs incubation, luminescence
# Experimental: Example B-1: In Vitro FXR Assay (TK)
# CV-1 cells were seeded at a density of 2,000,000 cells in a T175 flask with DMEM+10% charcoal double-stripped FBS and incubated at 37° C. in 5% CO2 for 18 h (O/N).
# After 18 h of incubation, the medium in the T175 flask was changed with fresh DMEM+10% charcoal super-stripped serum. In a polypropylene tube, 2500 μL OptiMEM (Life Technologies, Cat #31985-062) was combined with expression plasmids for hFXR, hRXR, TK-ECRE-luc and pCMX-YFP. The tube was then briefly vortexed and incubated at room temperature for 5 minutes. Transfection reagent (X-tremeGENE HP from Roche, Cat #06 366 236 001) was added to the OptiMEM/plasmid mixture vortexed and incubated at room temperature for 20 minutes. Following incubation, the transfection reagent/DNA mixture complex was added to cells in the T175 flask and the cells were incubated at 37° C. in 5% CO2 for 18 h (O/N).
# Compounds were serially diluted in DMSO and added to transfected CV-1 cells. The cells were then incubated for 18 hrs. The next day cells were lysed and examined for luminescence.
row,EC50 [nM],Compound
1,≤ 10,"COc1ccc(C23CCC(CN(c4cc(-c5cnn(C(C)(C)C)c5)ccn4)C(=O)[C@H]4CC[C@H](OC(=O)NC5COC5)CC4)(CC2)CC3)cc1C [Compound 2.28, 4-((4-(1-(tert-Butyl)-1H-pyrazol-4-yl)pyridin-2-yl)((4-(4-methoxy-3-methylphenyl)bicyclo[2.2.2]octan-1-yl)methyl)carbamoyl) (trans-cyclohexyl) oxetan-3-ylcarbamate]"
2,10 to 1000,"COc1ccc(C23CCC(CN(c4cc(-c5cnn(C(C)(C)C)c5)ccn4)C(=O)[C@H]4CC[C@H](OC(=O)NC5CCS(=O)(=O)CC5)CC4)(CC2)CC3)cc1C [Compound 2.39, 4-((4-(1-(tert-Butyl)-1H-pyrazol-4-yl)pyridin-2-yl)((4-(4-methoxy-3-methylphenyl)bicyclo[2.2.2]octan-1-yl)methyl)carbamoyl) cyclohexyl trans-(1,1-dioxidotetrahydro-2H-thiopyran-4-yl)carbamate]"
3,≤ 10,"CCC(C)(CC)n1cc(-c2ccnc(N(CC34CCC(c5ccc(OC)c(C)c5)(CC3)CC4)C(=O)[C@H]3CC[C@H](OC(=O)N4CCC(O)CC4)CC3)c2)cn1 [Compound 4.06, 4-(((4-(4-Methoxy-3-methylphenyl)bicyclo[2.2.2]octan-1-yl)methyl)(4-(1-(3-methylpentan-3-yl)-1H-pyrazol-4-yl)pyridin-2-yl)carbamoyl)cyclohexyl trans-4-hydroxypiperidine-1-carboxylate]"
4,10 to 1000,"COc1ccc(C23CCC(CN(c4cc(-c5cnn(C(C)(C)C)c5)ccn4)C(=O)[C@H]4CC[C@H](OC(=O)NC5CCSCC5)CC4)(CC2)CC3)cc1C [Compound 2.29, 4-((4-(1-(tert-Butyl)-1H-pyrazol-4-yl)pyridin-2-yl)((4-(4-methoxy-3-methylphenyl)bicyclo[2.2.2]octan-1-yl)methyl)carbamoyl)cyclohexyl trans-(tetrahydro-2H-thiopyran-4-yl)carbamate]"
5,≤ 10,"COc1ccc(C23CCC(CN(c4cc(-c5cnn(C(C)(C)C)c5)ccn4)C(=O)[C@H]4CC[C@H](OC(=O)N5CC(CS(C)(=O)=O)C5)CC4)(CC2)CC3)cc1C [Compound 2.24, 4-((4-(1-(tert-Butyl)-1H-pyrazol-4-yl)pyridin-2-yl)((4-(4-methoxy-3-methylphenyl)bicyclo[2.2.2]octan-1-yl)methyl)carbamoyl) (trans-cyclohexyl) 3-((methylsulfonyl)methyl) azetidine-1-carboxylate]"
6,≤ 10,"COc1ccc(C23CCC(CN(c4cc(-c5cnc(C(C)(C)C)s5)ccn4)C(=O)[C@H]4CC[C@H](OC(=O)NCCCO)CC4)(CC2)CC3)cc1C [Compound 2.02, 4-((4-(2-(tert-Butyl)thiazol-5-yl)pyridin-2-yl)((4-(4-methoxy-3-methylphenyl)bicyclo[2.2.2]octan-1-yl)methyl)carbamoyl) (trans-cyclohexyl) (3-hydroxypropyl)carbamate]"
7,≤ 10,"CCC(C)(C)n1cc(-c2ccnc(N(CC34CCC(c5ccc(OC)c(C)c5)(CC3)CC4)C(=O)[C@H]3CC[C@H](OC(=O)N4CC(O)C4)CC3)c2)cn1 [Compound 4, 4-(((4-(4-Methoxy-3-methylphenyl)bicyclo[2.2.2]octan-1-yl)methyl)(4-(1-(tert-pentyl)-1H-pyrazol-4-yl)pyridin-2-yl)carbamoyl) cyclohexyl trans-3-hydroxyazetidine-1-carboxylate]"
8,≤ 10,"COc1ccc(C23CCC(CN(c4cc(-c5cnn(C(C)(C)C)c5)ccn4)C(=O)[C@H]4CC[C@H](OC(=O)NCCO)CC4)(CC2)CC3)cc1C [Compound 2.30, 4-((4-(1-(tert-Butyl)-1H-pyrazol-4-yl)pyridin-2-yl)((4-(4-methoxy-3-methylphenyl)bicyclo[2.2.2]octan-1-yl)methyl)carbamoyl)cyclohexyl (2-hydroxyethyl)trans-carbamate]"

# Second part, the compound before the results:
row,Compound,EC50 [nM]
1,"COc1ccc([C@H]2CC[C@H](CN(c3cc(-c4cnn(C(C)(C)C)c4)ccn3)C(=O)[C@H]3CC[C@H](OC(=O)NC4CCOCC4)CC3)CC2)cc1C [Compound 1.11, trans-4-((4-(1-(tert-Butyl)-1H-pyrazol-4-yl)pyridin-2-yl)((trans-4-(4-methoxy-3-methylphenyl)cyclohexyl)methyl)carbamoyl) cyclohexyl (tetrahydro-2H-pyran-4-yl)carbamate]",10 to 1000
2,"COc1ccc(C23CCC(CN(c4cc(-c5cnc(C(C)(C)C)s5)ccn4)C(=O)[C@H]4CC[C@H](OC(=O)N5CC[C@H]5CO)CC4)(CC2)CC3)cc1C [Compound 2.10, (S)-4-((4-(2-(tert-Butyl)thiazol-5-yl)pyridin-2-yl)((4-(4-methoxy-3-methylphenyl)bicyclo[2.2.2]octan-1-yl)methyl)carbamoyl)cyclohexyl 2-(hydroxymethyl)azetidine- trans-1-carboxylate]",≤ 10
3,"COc1c(C)cc(C23CCC(CN(c4cncc(-c5cnn(C(C)(C)C)c5)n4)C(=O)[C@H]4CC[C@H](OC(=O)N5CC(O)C5)CC4)(CC2)CC3)cc1C [Compound 3.13, 4-((6-(1-(tert-Butyl)-1H-pyrazol-4-yl)pyrazin-2-yl)((4-(4-methoxy-3,5-dimethylphenyl)bicyclo[2.2.2]octan-1-yl)methyl)carbamoyl) (trans-cyclohexyl) 3-hydroxyazetidine-1-carboxylate]",10 to 1000
4,"COc1ccc(C23CCC(CN(c4cncc(-c5cnn(C(C)(C)C)c5)n4)C(=O)[C@H]4CC[C@H](OC(=O)N5CC(O)C5)CC4)(CC2)CC3)cc1C [Compound 3.12, 4-((6-(1-(tert-Butyl)-1H-pyrazol-4-yl)pyrazin-2-yl)((4-(4-methoxy-3-methylphenyl)bicyclo[2.2.2]octan-1-yl)methyl)carbamoyl) (trans-cyclohexyl) 3-hydroxyazetidine-1-carboxylate]",10 to 1000
5,"COc1ccc(C23CCC(CN(c4cncc(-c5cnn(C(C)(C)C)c5)c4)C(=O)[C@H]4CC[C@H](OC(=O)N5CC(O)C5)CC4)(CC2)CC3)cc1C [Compound 1.14, 4-((5-(1-(tert-Butyl)-1H-pyrazol-4-yl)pyridin-3-yl)((4-(4-methoxy-3-methylphenyl)bicyclo[2.2.2]octan-1-yl)methyl)carbamoyl) (trans-cyclohexyl) 3-hydroxyazetidine-1-carboxylate]",≤ 10
6,"COc1ccc(C23CCC(CN(c4cc(-c5cnc(C(C)(C)C)s5)ccn4)C(=O)[C@H]4CC[C@H](OC(=O)NC5COC5)CC4)(CC2)CC3)cc1C [Compound 2.04, 4-((4-(2-(tert-Butyl)thiazol-5-yl)pyridin-2-yl)((4-(4-methoxy-3-methylphenyl)bicyclo[2.2.2]octan-1-yl)methyl)carbamoyl) (trans-cyclohexyl) oxetan-3-ylcarbamate]",≤ 10
7,"COc1ccc([C@H]2CC[C@H](CN(c3cc(-c4coc(C(C)(C)C)n4)ccn3)C(=O)[C@H]3CC[C@H](OC(=O)NC4CCOCC4)CC3)CC2)cc1C [Compound 1.07, trans-4-((4-(2-(tert-Butyl)oxazol-4-yl)pyridin-2-yl)(((trans)-4-(4-methoxy-3-methylphenyl)cyclohexyl)methyl)carbamoyl) cyclohexyl (tetrahydro-2H-pyran-4-yl)carbamate]",10 to 1000
8,"COc1ccc([C@H]2CC[C@H](CN(c3cc(-c4cnc(C(C)(C)C)s4)ccn3)C(=O)[C@H]3CC[C@H](OC(=O)N4CCC(O)CC4)CC3)CC2)cc1C [Compound 1.03, trans-4-((4-(2-(tert-Butyl)thiazol-5-yl)pyridin-2-yl)(((trans)-4-(4-methoxy-3-methylphenyl)cyclohexyl)methyl)carbamoyl) cyclohexyl 4-hydroxypiperidine-1-carboxylate]",10 to 1000
9,"COc1ccc(C23CCC(CN(c4cc(-c5coc(C(C)(C)C)n5)ccn4)C(=O)[C@H]4CC[C@H](OC(=O)NC5COC5)CC4)(CC2)CC3)cc1C [Compound 2.18, 4-((4-(2-(tert-Butyl)oxazol-4-yl)pyridin-2-yl)((4-(4-methoxy-3-methylphenyl)bicyclo[2.2.2]octan-1-yl)methyl)carbamoyl) (trans-cyclohexyl) oxetan-3-ylcarbamate]",10 to 1000
